{
  "source": "paper PMC11198769",
  "about": "“Enhancement of transcription efficiency by TAR-Tat system increases the functional expression of human olfactory receptors” (PLOS ONE, 2024)",
  "key": {"OR2M3": {"target": "T1, OR2M3 (Homo sapiens, UniProt Q8NG83)", "T1 construct": "Lucy tag (N); expressed in transfected cells; host or cells: Flp-In T-REx-293 cells stably expressing RTP1S, Gαolf and Ric8-b", "T1 sequence (Q8NG83 1-312)": "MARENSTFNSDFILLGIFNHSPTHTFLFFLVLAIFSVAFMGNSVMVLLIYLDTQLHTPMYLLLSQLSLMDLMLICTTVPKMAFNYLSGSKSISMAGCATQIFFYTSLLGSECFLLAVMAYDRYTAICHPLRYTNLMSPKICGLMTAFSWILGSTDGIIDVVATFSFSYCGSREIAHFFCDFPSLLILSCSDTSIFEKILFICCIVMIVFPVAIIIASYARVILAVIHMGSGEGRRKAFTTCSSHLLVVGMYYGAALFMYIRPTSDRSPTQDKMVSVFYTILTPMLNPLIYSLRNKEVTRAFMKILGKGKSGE", "assay": "hOR assay (GloSensor cAMP luciferase), dose-response", "assay_type": "cell-based", "description": "(§1) Flp-In T-REx-293 cells stably expressing accessory proteins (RTP1S, Gαolf, and Ric8-b) were established using the Flp-In T-REx system. Accessory proteins-expressing cells were maintained in high-glucose Dulbecco’s modified Eagle medium (Sigma-Aldrich) containing 10% fetal bovine serum (Biowest) and 1% antibiotic–antimycotic (Nacalai tesque) at 37°C with 5% CO2.\n(§2) The GloSensor™ Technology (Promega) was used for the luciferase assay of the hOR response. As the negative control, cells that were transfected by the pBApo-CMV neo vector and pHEK293 Ultra Expression Vector I were used as mock cells. hOR/pHEK and hOR/pBApo (50 ng/well) were transfected into the accessory proteins-expressing cell line (40000 cells/well) using Lipofectamine 2000 (Thermo Fisher Scientific) (400 nL/well) along with pGlosensor™-22F cAMP biosensor plasmid (Promega) (50 ng/well) in a 96-well plate. At 28 h posttransfection, the cells were washed with an assay buffer (140 mM NaCl, 10 mM HEPES, 5 mM KCl, 1 mM CaCl2・2H2O, 10 mM D-glucose, pH 7.5) and replaced with the assay buffer (50 μL/well) containing 2% GloSensor cAMP substrate and preincubated for 1 h at 25°C. Then, the assay buffer was added (130 μL/well). After 10 min of equilibration, the luminescence was measured (L0). Odorants diluted in 10% DMSO/assay buffer were treated (20 μL/well). After 9 min, the luminescence was measured (L9min). First, all the L9min values were subtracted by the L0 value (ΔL) and divided by the L0 value (ΔL/L0). The concentration range of the odorants was different for each odorant, but the minimum was 0.01 μM and the maximum was 3 mM. For all hORs, luciferase assays with hOR/pBApo and hOR/pHEK were conducted in the same 96-well plate each time, and luminescence was normalized to a maximum value of 100. Dose–response curve images were graphed using the Graph Pad Prism 9 software (Graph Pad Software)."}, "OR2Z1": {"target": "T2, OR2Z1 (Homo sapiens, UniProt Q8NG97)", "T2 construct": "Lucy tag (N); FLAG (N); Rho tag (N); expressed in transfected cells; host or cells: Flp-In T-REx-293 cells stably expressing RTP1S, Gαolf and Ric8-b", "T2 sequence (Q8NG97 1-314)": "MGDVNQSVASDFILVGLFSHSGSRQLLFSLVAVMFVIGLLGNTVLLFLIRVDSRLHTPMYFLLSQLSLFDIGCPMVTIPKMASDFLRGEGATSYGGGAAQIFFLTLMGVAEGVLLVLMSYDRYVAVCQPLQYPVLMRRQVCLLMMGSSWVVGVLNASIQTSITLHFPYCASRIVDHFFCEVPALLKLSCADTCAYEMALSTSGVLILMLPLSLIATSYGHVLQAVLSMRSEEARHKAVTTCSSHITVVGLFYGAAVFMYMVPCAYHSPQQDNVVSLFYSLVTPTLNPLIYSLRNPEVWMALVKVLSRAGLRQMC", "assay": "hOR assay (GloSensor cAMP luciferase), dose-response", "assay_type": "cell-based", "details": "OR2Z1, with or without the TAR-Tat system", "description": "as §1, §2"}, "OR52N4": {"target": "T3, OR52N4 (Homo sapiens, UniProt Q8NGI2)", "T3 construct": "Lucy tag (N); expressed in transfected cells; host or cells: Flp-In T-REx-293 cells stably expressing RTP1S, Gαolf and Ric8-b", "T3 sequence (Q8NGI2 1-321)": "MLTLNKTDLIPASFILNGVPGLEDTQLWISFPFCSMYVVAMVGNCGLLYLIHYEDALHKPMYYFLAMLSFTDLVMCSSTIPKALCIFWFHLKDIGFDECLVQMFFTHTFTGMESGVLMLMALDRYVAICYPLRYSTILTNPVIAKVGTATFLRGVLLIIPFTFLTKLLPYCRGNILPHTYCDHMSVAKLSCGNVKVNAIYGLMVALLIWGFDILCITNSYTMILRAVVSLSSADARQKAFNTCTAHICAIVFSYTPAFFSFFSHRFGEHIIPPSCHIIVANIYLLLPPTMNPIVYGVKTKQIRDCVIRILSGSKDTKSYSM", "assay": "hOR assay (GloSensor cAMP luciferase), dose-response", "assay_type": "cell-based", "details": "OR52N4, with or without the TAR-Tat system", "description": "as §1, §2"}, "OR8B3": {"target": "T4, OR8B3 (Homo sapiens, UniProt Q8NGG8)", "T4 construct": "Lucy tag (N); FLAG (N); Rho tag (N); expressed in transfected cells; host or cells: Flp-In T-REx-293 cells stably expressing RTP1S, Gαolf and Ric8-b", "T4 sequence (Q8NGG8 1-313)": "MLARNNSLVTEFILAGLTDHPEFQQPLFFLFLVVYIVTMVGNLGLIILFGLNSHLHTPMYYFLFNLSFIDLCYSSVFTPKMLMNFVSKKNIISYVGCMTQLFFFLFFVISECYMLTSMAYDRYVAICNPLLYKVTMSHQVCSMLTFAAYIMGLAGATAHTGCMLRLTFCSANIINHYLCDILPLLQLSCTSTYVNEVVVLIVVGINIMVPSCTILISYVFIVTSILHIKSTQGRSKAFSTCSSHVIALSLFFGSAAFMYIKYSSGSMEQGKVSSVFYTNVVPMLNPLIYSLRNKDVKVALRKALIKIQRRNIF", "assay": "hOR assay (GloSensor cAMP luciferase), dose-response", "assay_type": "cell-based", "details": "OR8B3, with or without the TAR-Tat system", "description": "as §1, §2"}, "OR2W1": {"target": "T5, OR2W1 (Homo sapiens, UniProt Q9Y3N9)", "T5 construct": "Lucy tag (N); FLAG (N); Rho tag (N); expressed in transfected cells; host or cells: Flp-In T-REx-293 cells stably expressing RTP1S, Gαolf and Ric8-b", "T5 sequence (Q9Y3N9 1-320)": "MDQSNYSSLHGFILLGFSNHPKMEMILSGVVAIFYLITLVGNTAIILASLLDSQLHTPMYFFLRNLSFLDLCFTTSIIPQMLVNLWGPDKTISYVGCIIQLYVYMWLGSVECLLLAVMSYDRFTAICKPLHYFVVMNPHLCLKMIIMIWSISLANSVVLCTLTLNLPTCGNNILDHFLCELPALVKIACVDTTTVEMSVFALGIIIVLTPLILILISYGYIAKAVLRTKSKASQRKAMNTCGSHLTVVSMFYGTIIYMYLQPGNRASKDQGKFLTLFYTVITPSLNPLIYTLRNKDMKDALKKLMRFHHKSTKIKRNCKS", "design": "method as in PMID 19261596", "details": "read-out: EC50 value of n-hexanal for OR2W1 reported in a previous study; cited from earlier work"}},
  "data": [
    {"smiles": "CCCCCC=O", "note": "[n-hexanal]", "values": [
      {"measurement": "mode of action on OR2M3", "setting": "OR2M3; OR2M3/pHEK plasmid", "result": "inverse agonist"},
      {"measurement": "suppression of the active response of OR2M3 to agonist", "setting": "OR2M3; coadministered with 500 μM 3-mercapto-2-methyl-1-pentanol, OR2M3/pHEK plasmid", "result": "suppressed in an n-hexanal concentration-dependent manner"},
      {"measurement": "inhibitory effect on the constitutive activity of OR2M3 (luminescence values)", "setting": "OR2M3; with and without the TAR-Tat system", "result": "decreased in an n-hexanal concentration-dependent manner only in the case with the TAR-Tat system"},
      {"measurement": "concentration-dependent response to n-hexanal", "setting": "OR2Z1", "result": "no concentration-dependent response"},
      {"measurement": "concentration-dependent response to n-hexanal", "setting": "OR52N4", "result": "no concentration-dependent response"},
      {"measurement": "concentration-dependent response to n-hexanal", "setting": "OR8B3", "result": "no concentration-dependent response"},
      {"measurement": "EC50", "setting": "OR2W1", "result": 7.9, "unit": "µM"}
    ]}
  ]
}
